Results on 15 compounds are retold here after ChEMBL document CHEMBL1139753, “Synthesis, in vitro and in vivo cytotoxicity of 6,7-diaryl-2,3,8,8a-tetrahydroindolizin-5(1H)-ones” (Bioorg Med Chem Lett, 2007).

For orientation: IC50 means the midpoint of a concentration-inhibition curve.

The test system of the experiment is HCT-116. As to the kind of experiment: Cytotoxicity against HCT116 cells after 48 hrs. Particulars: Homo sapiens, HCT-116, 48 h. It is filed as functional, cell-based.
On to `COc1ccc(C2=C(c3ccc(OC)cc3)C(=O)N3CCCC3C2)cc1` (stereo not given), for which the IC50 was 3.2 µM.

As to `COc1ccc(C2=C(c3ccc(C)cc3)C(=O)N3CCCC3C2)cc1` (stereo not given), the IC50 amounted to 10 µM.

Consider `COc1ccc(C2=C(c3cccc(Cl)c3)C(=O)N3CCCC3C2)cc1` (stereo not given), for which half-maximal inhibition (IC50) was put at 8 µM.

In turn, `COc1ccc(C2=C(c3ccc(N=[N+]=[N-])cc3)C(=O)N3CCCC3C2)cc1` (stereo not given) returned an IC50 of 25 µM.

As for `O=C1C(c2ccccc2)=C(c2ccc(OCc3ccccc3)cc2)CC2CCCN12` (stereo not given), 8.9 µM corresponded to half-maximal inhibition (IC50).

Compound `COc1ccc(C2=C(c3ccc(OC)c(OC)c3)C(=O)N3CCCC3C2)cc1` (stereo not given) came in with an IC50 of 5 µM.

In the case of `COc1ccc(C2=C(c3ccc(OC)c(OC)c3)C(=O)N3CCCC3C2)cc1OC` (stereo not given), the 50% inhibitory concentration (IC50) was over 10 µM.

In turn, `O=C1N[C@H]2[C@H](CS[C@H]2CCCCC(=O)OC(=O)CCCCCNOc2ccc(C3=C(c4ccccc4)C(=O)N4CCCC4C3)cc2)N1` (stereo not given in full) gave an IC50 of 17 µM.

`COc1ccc(C2=C(c3ccccc3)C(=O)N3CCCC3C2)cc1` (stereo not given) came in with an IC50 of 0.39 µM.

`COc1ccc(C2=C(c3ccccc3Cl)C(=O)N3CCCC3C2)cc1` (stereo not given) yielded an IC50 of 8 µM.

In turn, `O=C1C(c2ccccc2)=C(c2ccc(O)cc2)CC2CCCN12` (stereo not given) came in with an IC50 of 9 µM.

For the compound `COc1ccc(C2=C(c3ccc(Cl)cc3)C(=O)N3CCCC3C2)cc1` (stereo not given), the IC50 was 13 µM.

The compound `COc1ccc(C2=C(c3cccc(N)c3)C(=O)N3CCCC3C2)cc1` (stereo not given) gave an IC50 of over 25 µM.

`COc1ccc(C2=C(c3cc(OC)c(OC)c(OCc4ccccc4)c3)CC3CCCN3C2=O)cc1OC` (stereo not given) registered an IC50 of 3.3 µM.

`COc1ccc(C2=C(c3ccc(Cl)c(Cl)c3)C(=O)N3CCCC3C2)cc1` (stereo not given) came in with an IC50 of 4 µM.
